We go through 19 molecules from patent US20250195530A1, “POLQ INHIBITORS” (ASTRAZENECA AB, priority 2022, published 2025).

One test has as its system DLD-1 BRCA2−/− cells. The test can be described thus: Homologous recombination synthetic lethal inhibition of proliferation, DLD-1 BRCA2-/- (Cell Titre Glo 3D). Type of test: cell-based. Particulars: for IC50: Homo sapiens. The essentials: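 Isogenic DLD-1 pair; BRCA2−/− seeded 3,000 cells/mL and read day 12, wt seeded 1,500 cells/mL and read day 7. 10-pt titration (top 10 μM, 3-fold), re-fed with compound day 6, 37 °C/5% CO2. CTG 3D endpoint; IC50 at 50% signal loss.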

The test system of another test is DLD-1 cells. Kind of test: Inhibition of proliferation, DLD-1 BRCA2 wt control (Cell Titre Glo 3D). Type of test: cell-based. Particulars: for IC50: Homo sapiens. From the text:
This assay identifies anti-proliferative effects of POLQ compounds in the homologous recombination deficient colorectal cell line DLD-1 BRCA2−/− over 8-9 population doublings (7 days for DLD-1 and 12 days for DLD-1 BRCA2−/−). DLD1 BRCA2 wt are used as a control to detect cell toxic effects not specific to homologous recombination deficiency.
DLD-1 BRCA2−/− and DLD-1 cells were kept in continuous culture in Assay Medium (RPMI 1640 phenol red free (Sigma R7509) containing 1% GlutaMAX (Gibco 35050) and 10% Foetal Bovine Serum (Gibco 10270-106)). On the day of the assay cells in culture of ˜80-90% confluent were used. Cell monolayers were washed with 10 mL PBS, then removed and added 2 mL TrypLE Express (Gibco 12604). The cells with TrypLE Express were incubated for 5 minutes in cell culture incubator and then the detached cells resuspend in 15 mL Assay Medium. Cells were counted using a ViCell and the cell images were monitored for clumps of cells, ideally they should be single or <3 cell clusters. The cells were diluted to 3,000 cells/mL of DLD-1 BRCA2−/− and 1,500 cells/mL of DLD-1 in Assay Medium and 100 μL added per well of transparent bottomed, black, tissue culture-treated 96-well plates (CoStar, No. 3904) Assay Ready Plates. The Assay Ready Plates contain a 10 point 10 μM to 0.51 nM dose range with three-fold dilutions in DMSO with a final volume of 100 nL. The plates were incubated at 37° C. with 5% C02 for 6 days. On day 6, 100 μL/well of Assay Medium was added to duplicate Assay Ready Plates. 90 μL of culture medium was removed from the cell plates and replenished with the Assay Media and compounds from the duplicate Assay Ready Plates using the Bravo. The plates were further incubated at 37° C. with 5% CO2. On day 7 the plates containing DLD-1 and Cell Titre Glo 3D (Promega G9683) were equilibrated to room temperature, then 60 μL of Cell Titre Glo 3D was added per well and incubated on a shaking platform for 30 min. Plates were read on the Envision measuring luminescence for 1 second per well. On day 12 the plates containing DLD-1 BRCA2−/− cells and Cell Titre Glo 3D (Promega G9683) were equilibrated to room temperature, then 60 μL Cell Titre Glo 3D added per well and incubated on a shaking platform for 30 min. Plates were read on the Envision measuring luminescence for 1 second per well. The data was exported into a suitable software package (such as Genedata) to perform curve fitting analysis. Inhibition of cell proliferation was expressed as an IC5o value and was determined by calculation of the concentration of compound that was required to give a 50% reduction of the average maximum Total Intensity signal.

Setting [1] is: DLD-1, second proliferation column (c6), DLD-1 BRCA2 wt control, read-out: POLQ PD Prolif Lumin (converted).
Setting [2] is: DLD-1, 288 h, DLD-1 BRCA2−/− cells, 12 days, read-out: POLQ PD Prolif Lumin BRCA2 −/− mean pIC50 (converted).
Where [3] appears, read: DLD-1, 168 h, DLD-1 BRCA2 wt cells, 7 days, read-out: POLQ PD Prolif Lumin DLD1 mean pIC50 (converted).
Where [4] appears, read: DLD-1, first proliferation column, DLD-1 BRCA2-/-, read-out: POLQ PD Prolif Lumin (converted).
[5] abbreviates: DLD-1, second proliferation column, DLD-1 BRCA2 wt control, read-out: POLQ PD Prolif Lumin (converted).
Setting [6] is: DLD-1, DLD1 BRCA2 wt, mean, read-out: POLQ PD Prolif Lumin DLD1 mean pIC50 (converted).

Read-outs that look alike come from different tables or passages of the source.

`CC1(Oc2ncnc3c2nc(-c2ccc(OCCC(=O)O)cc2Cl)n3Cc2cccc(C(F)(F)F)c2)CC1` [Example T151, 3-(3-chloro-4-(6-(1-methylcyclopropoxy)-9-(3-(trifluoromethyl)benzyl)-9H-purin-8-yl)phenoxy)propanoic acid]: the IC50 in the test with DLD-1 BRCA2−/− cells (DLD-1, first proliferation column (c5), DLD-1 BRCA2-/-, read-out: POLQ PD Prolif Lumin (converted)) was 0.398 µM; in the test with DLD-1 cells (setting [1]), more than 10 µM.

Regarding `CC(C)Oc1ccc2c(c1)nc(-c1ccc(OC3CCCN(C)CC3)cc1Cl)n2Cc1ccccc1` (single isomer, unassigned) [Example A11, 1-benzyl-2-(2-chloro-4-((1-methylazepan-4-yl)oxy)phenyl)-5-isopropoxy-1H-benzo[d]imidazole], the “POLQ PD Prolif Lumin BRCA2 −/− mean pIC50” value in the test with DLD-1 BRCA2−/− cells (DLD-1 BRCA2−/− cells, 12 days) came out at 6.1. The “POLQ PD Prolif Lumin DLD1 mean pIC50” value in the test on DLD-1 cells (DLD-1 BRCA2 wt cells, 7 days) is on record as 5.8.

With `CC1(Oc2ncnc3c2nc(-c2ccc(OCCCC(=O)NS(C)(=O)=O)cc2Cl)n3Cc2cccc(Cl)c2)CC1` [Example T326, 4-(3-chloro-4-(9-(3-chlorobenzyl)-6-(1-methylcyclopropoxy)-9H-purin-8-yl)phenoxy)-N-(methylsulfonyl)butanamide], the IC50 in the test on DLD-1 BRCA2−/− cells (DLD-1, first proliferation column (c5), taken as DLD-1 BRCA2-/-, read-out: POLQ PD Prolif Lumin (converted)) was 0.631 µM; with DLD-1 cells (DLD-1, second proliferation column (c6), taken as DLD-1 BRCA2 wt, read-out: POLQ PD Prolif Lumin (converted)) it was more than 10 µM.

With `Cc1nc(Cn2c(-c3ccc(OCCN4CCNCC4)cc3Cl)nc3c(OC4(C)CC4)ncnc32)cs1` [Example K6, 4-((8-(2-chloro-4-(2-(piperazin-1-yl)ethoxy)phenyl)-6-(1-methylcyclopropoxy)-9H-purin-9-yl)methyl)-2-methylthiazole], the IC50 in the test with DLD-1 BRCA2−/− cells (setting [2]) was 3.98 µM; in the test on DLD-1 cells (setting [3]), more than 10 µM.

With `Cc1ccnc(Cn2c(-c3ccc(OCCCN4CCCC4)cc3Cl)nc3c(OC4(C)CC4)ncnc32)c1` [Example T590, 8-(2-chloro-4-(3-(pyrrolidin-1-yl)propoxy)phenyl)-6-(1-methylcyclopropoxy)-9-((4-methylpyridin-2-yl)methyl)-9H-purine], the IC50 in the test on DLD-1 BRCA2−/− cells (setting [4]) was 0.251 µM; with DLD-1 cells (setting [5]), more than 10 µM.

As for `Cc1ccnc(Cn2c(-c3ccc(OCCN4CC5(CCN5)C4)cc3Cl)nc3c(OC4(C)CC4)ncnc32)c1` [Example T587, 8-(4-(2-(1,6-diazaspiro[3.3]heptan-6-yl)ethoxy)-2-chlorophenyl)-6-(1-methylcyclopropoxy)-9-((4-methylpyridin-2-yl)methyl)-9H-purine], the IC50 with DLD-1 BRCA2−/− cells (setting [4]) was 1 µM; with DLD-1 cells (setting [5]), more than 10 µM.

With `CC(C)Oc1nccc2c1nc(-c1ccc(OCCN3CCNCC3)cc1Cl)n2Cc1ccccc1` [Example 9, 1-benzyl-2-(2-chloro-4-(2-(piperazin-1-yl)ethoxy)phenyl)-4-isopropoxy-1H-imidazo[4,5-c]pyridine], the figures for the IC50 in the test on DLD-1 BRCA2−/− cells (setting [2]) and in the test with DLD-1 cells (setting [3]) were 0.631 µM and 2.51 µM, respectively.

Turning to `CC(CCOc1ccc(-c2nc3c(OC4(C)CC4)ncnc3n2Cc2c(Cl)cccc2Cl)c(Cl)c1)C(=O)O` (racemic) [Example T277, 4-(3-chloro-4-(9-(2,6-dichlorobenzyl)-6-(1-methylcyclopropoxy)-9H-purin-8-yl)phenoxy)-2-methylbutanoic acid], the IC50 in the test on DLD-1 BRCA2−/− cells (DLD-1, DLD-1 BRCA2-/- proliferation, column head only partly shown, read-out: POLQ PD Prolif Lumin (converted)) is 2 µM; in the test with DLD-1 cells (DLD-1, DLD-1 BRCA2 wt control proliferation, column head only partly shown, read-out: POLQ PD Prolif Lumin (converted)), more than 10 µM.

Take `CC1(Oc2ncnc3c2nc(-c2cccc(OCCCCCC(=O)O)c2Cl)n3Cc2cccc(Cl)c2)CC1` [Example T440, 6-(2-chloro-3-(9-(3-chlorobenzyl)-6-(1-methylcyclopropoxy)-9H-purin-8-yl)phenoxy)hexanoic acid]: the IC50 was 0.0251 µM in the test with DLD-1 BRCA2−/− cells (DLD-1, proliferation, luminescence, taken as DLD-1 BRCA2-/-, read-out: POLQ PD Prolif Lumin (converted)) and more than 10 µM with DLD-1 cells (DLD-1, proliferation, luminescence, second Prolif column (c6), taken as DLD-1 BRCA2 wt control, read-out: POLQ PD Prolif Lumin (converted)).

Take `CN1CCN(CCOc2ccc(-c3nc4c(OC5(C)CC5)ncnc4n3Cc3ccncc3)c(Cl)c2)CC1` [Example K1, 8-(2-chloro-4-(2-(4-methylpiperazin-1-yl)ethoxy)phenyl)-6-(1-methylcyclopropoxy)-9-(pyridin-4-ylmethyl)-9H-purine]: the values for the IC50 with DLD-1 BRCA2−/− cells (setting [2]) and in the test with DLD-1 cells (setting [3]) were 1 µM and more than 10 µM, respectively.

With `CC1(Oc2ncnc3c2nc(-c2cccc(O[C@H]4CC[C@H](C(=O)O)CC4)c2Cl)n3Cc2cc(Cl)ccc2C#N)CC1` [Example U85, (1r,4r)-4-(2-chloro-3-(9-(5-chloro-2-cyanobenzyl)-6-(1-methylcyclopropoxy)-9H-purin-8-yl)phenoxy)cyclohexane-1-carboxylic acid], the “POLQ PD Prolif Lumin DLD1 mean pIC50” value in the test on DLD-1 cells (DLD1 BRCA2 wt, mean) is less than 5.0.

As for `COc1ccc(F)cc1Cn1c(-c2cccc(OCC[C@@H](C)C(=O)O)c2Cl)nc2c(OC3(C)CC3)ncnc21` [Example U78, (R)-4-(2-chloro-3-(9-(5-fluoro-2-methoxybenzyl)-6-(1-methylcyclopropoxy)-9H-purin-8-yl)phenoxy)-2-methylbutanoic acid], the IC50 in the test on DLD-1 cells (setting [6]) was more than 10 µM.

For the molecule `Cc1cc(OC2CNC2)ncc1-c1nc2c(OC3(C)CC3)ncnc2n1Cc1ccccc1` [Example G17, 8-{6-[(azetidin-3-yl)oxy]-4-methylpyridin-3-yl}-9-benzyl-6-[(1-methylcyclopropyl)oxy]-9H-purine], in the test on DLD-1 cells (setting [3]), the IC50 is 7.94 µM.

With `COc1ccc(Cl)cc1Cn1c(-c2ccc(OCCCOC(C)(C)C(=O)O)cc2Cl)nc2c(OC3(C)CC3)ncnc21` [Example U92, 2-(3-(3-chloro-4-(9-(5-chloro-2-methoxybenzyl)-6-(1-methylcyclopropoxy)-9H-purin-8-yl)phenoxy)propoxy)-2-methylpropanoic acid], the IC50 in the test on DLD-1 cells (setting [6]) was more than 10 µM.

On to `Cc1ccnc(Cn2c(-c3ccc(C4CCC(=O)N4)cc3Cl)nc3c(OC4(C)CC4)ncnc32)c1` (single isomer, unassigned) [Example T173, 5-(3-chloro-4-(6-(1-methylcyclopropoxy)-9-((4-methylpyridin-2-yl)methyl)-9H-purin-8-yl)phenyl)pyrrolidin-2-one], for which the IC50 in the test on DLD-1 cells (setting [1]) was more than 10 µM.

Take `CC1(Oc2ncnc3c2nc(-c2ccc(OCCN4CCNCC4)cc2Cl)n3CCc2ccccn2)CC1` [Example J11, 8-(2-chloro-4-(2-(piperazin-1-yl)ethoxy)phenyl)-6-(1-methylcyclopropoxy)-9-(2-(pyridin-2-yl)ethyl)-9H-purine]: in the test with DLD-1 cells (setting [3]), the IC50 was more than 10 µM.

Regarding `COc1ccc(F)cc1Cn1c(-c2cccc(OCCCOCC(=O)O)c2Cl)nc2c(OC3(C)CC3)ncnc21` [Example U71, 2-(3-(2-chloro-3-(9-(5-fluoro-2-methoxybenzyl)-6-(1-methylcyclopropoxy)-9H-purin-8-yl)phenoxy)propoxy)acetic acid], in the test with DLD-1 cells (setting [6]), the IC50 was more than 10 µM.

For the molecule `Cn1cnnc1Cn1c(-c2ccc(OCCN3CCNCC3)cc2Cl)nc2c(OC3(C)CC3)ncnc21` [Example T150, 8-(2-chloro-4-(2-(piperazin-1-yl)ethoxy)phenyl)-9-((4-methyl-4H-1,2,4-triazol-3-yl)methyl)-6-(1-methylcyclopropoxy)-9H-purine], the IC50 with DLD-1 cells (setting [1]) was more than 10 µM.

In the case of `Cc1ccnc(Cn2c(-c3ccc(OC4CCCNCC4)cc3Cl)nc3c(OC4(C)CC4)ncnc32)c1` (single isomer, unassigned) [Example T509, 8-(4-(azepan-4-yloxy)-2-chlorophenyl)-6-(1-methylcyclopropoxy)-9-((4-methylpyridin-2-yl)methyl)-9H-purine], in the test on DLD-1 cells (setting [1]), the IC50 was more than 10 µM.
